Test results reported in patent publication US20240390341A1, “METHODS FOR TREATING ADRENAL GLAND TUMORS” (Corcept Therapeutics Incorporated, priority 2023, published 2024).
Entries after “also recorded” stand apart in the source; their conditions may differ.

Key:
[1] = system: ACTH and cortisol levels; settings: Cushing's syndrome patients; cited from earlier work
[2] = target: glucocorticoid receptor (Homo sapiens, UniProt P04150); settings: HepG2 cells; cited from earlier work
[3] = system: plasma ACTH, cortisol levels; assay: Plasma ACTH, cortisol and DST in a GRADIENT study patient; assay type: in vivo, human; settings: FIG. 2 patient
Description: (§1) The following protocol describes the GRADIENT clinical trial, an on-going, randomized, double-blind, placebo-controlled Phase 3 study which focuses on patients with hypercortisolism secondary to adrenal adenoma(s) or hyperplasia (ClinicalTrials.gov Identifier: NCT04308590). This study includes patients with cortisol-secreting adrenal adenomas or hyperplasia associated with DM/IGT (diabetes […] (DM) and/or impaired glucose tolerance (IGT)) and/or uncontrolled systolic hypertension. The study enrolled patients with hypercortisolism due to cortisol secreting adrenal adenomas or hyperplasia. These patients may or may not present the classic clinical manifestations of overt Cushing syndrome (i.e., facial appearance, buffalo hump, striae, etc.). Patients were identified as suffering from cortisol-secreting adrenal gland tumors based on abnormal dexamethasone suppression test (DST) and low ACTH. Patients could receive medications that were commonly used to treat diabetes, hypertension, or dyslipidemia if required. Following screening, those patients meeting study criteria were randomly assigned to receive doses of either placebo or relacorilant for 22 weeks of treatment. Patient follow-up was within 28 days of the last dose. Total patient participation in the study was up to 32 weeks. The GRADIENT study design is illustrated in FIG. 1. Patients discussed herein were participants in the GRADIENT study. […] The starting dose at Baseline was 100 mg relacorilant or matching placebo once daily for 2 weeks, after which the dose was increased to 200 mg. As tolerated, the dose was then increased by 100 mg to 300 mg once daily after 4 weeks, and, as tolerated, the dose was then increased to 400 mg once daily after another 4 weeks. If a dose was not tolerated, dose interruption, dose reduction, and dose re-escalation were allowed. Patients were maintained at a once-daily dose of 400 mg, or at their highest tolerated dose. Dose titrations after 18 weeks were not permitted. Patients who completed the study were permitted to continue relacorilant treatment in an extension study if they have at least 80% adherence with scheduled dosing (by capsule counts), and are expected to maintain clinical benefit from the study drug. Although not expected to regress, adrenal tumors progress very slowly, and rarely progress into overt Cushing syndrome ([…] et al. 2016 Eur J Endocrinol. 175 (2):G1-[…]. doi: 10.1530/EJE-16-0467). Patients receiving placebo continued to receive their previously prescribed medications; thus, although the placebo was not expected to provide additional benefit to those patients receiving placebo, neither was any detriment expected. […]

[4] = system: cortisol-secreting adrenal adenoma; assay: CT imaging of adrenal gland tumor size in GRADIENT study patients; assay type: in vivo, human
Description: as §1, with “expected. Relacorilant was supplied as 100 mg capsules for oral dosing.” for “expected.”

[5] = system: pituitary macroadenomas; settings: following administration of relacorilant; cited from earlier work

Chain of glucocorticoid receptor (P04150 whole entry): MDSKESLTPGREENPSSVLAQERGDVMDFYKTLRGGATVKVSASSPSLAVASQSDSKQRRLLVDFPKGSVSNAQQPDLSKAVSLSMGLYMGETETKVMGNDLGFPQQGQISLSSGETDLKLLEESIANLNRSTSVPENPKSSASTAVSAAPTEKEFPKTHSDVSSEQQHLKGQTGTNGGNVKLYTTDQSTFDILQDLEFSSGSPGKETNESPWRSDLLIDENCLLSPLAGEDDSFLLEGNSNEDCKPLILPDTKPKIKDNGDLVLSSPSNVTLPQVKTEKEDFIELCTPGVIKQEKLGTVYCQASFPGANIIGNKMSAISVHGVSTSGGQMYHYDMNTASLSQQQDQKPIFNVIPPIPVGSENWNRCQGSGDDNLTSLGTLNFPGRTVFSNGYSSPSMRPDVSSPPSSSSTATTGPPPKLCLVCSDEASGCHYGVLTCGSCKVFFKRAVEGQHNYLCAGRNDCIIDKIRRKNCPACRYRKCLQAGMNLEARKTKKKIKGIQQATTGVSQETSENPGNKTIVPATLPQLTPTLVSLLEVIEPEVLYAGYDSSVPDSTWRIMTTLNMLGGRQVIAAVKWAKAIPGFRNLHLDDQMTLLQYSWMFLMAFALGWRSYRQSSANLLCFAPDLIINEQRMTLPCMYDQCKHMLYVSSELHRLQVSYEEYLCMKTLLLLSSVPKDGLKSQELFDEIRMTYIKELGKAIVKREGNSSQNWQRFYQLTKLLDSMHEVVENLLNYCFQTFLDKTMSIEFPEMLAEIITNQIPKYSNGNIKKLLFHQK

Row | Structure (SMILES) | ACTH levels (in words) [1] | cortisol levels (in words) [1] | activity of tyrosine aminotransferase (TAT) (in words) [2] | cortisol levels (in words) ([3]; after relacorilant treatment) | dexamethasone suppression test (DST) (in words) ([3]; after relacorilant treatment) | ACTH levels (in words) ([3]; at 6 months of relacorilant administration) | plasma ACTH level ([3]; since 6 months of relacorilant, undetectable before treatment) [pg/mL] | size of adrenal adenoma (CT) ([4]; FIG. 2 patient, benign cortisol-secreting adenoma, daily relacorilant 100 up to 400 mg/day for almost two years, initial size 4.2 cm) [cm] | degenerative changes inside the adenoma (CT) ([4]; FIG. 2 patient, after almost two years of daily relacorilant, not present in initial scan) | maximum tumor dimension (CT measurement line) ([4]; FIG. 3 patient, at least 3 months daily relacorilant 100 up to 400 mg/day, 34.09 mm / 34.08 mm before treatment) [mm] | change in adrenal gland tumor size following treatment (in words) ([4]; individual patients, daily relacorilant up to 400 mg/day) | pituitary macroadenoma size (in words) [5]
1 | CC#C[C@]1(O)CC[C@H]2[C@@H]3CCC4=CC(=O)CCC4=C3[C@@H](c3ccc(N(C)C)cc3)C[C@@]21C [mifepristone] | increased | increased | decreases | – | – | – | – | – | – | – | – | –
2 | Cn1cc(S(=O)(=O)N2CCC3=Cc4c(cnn4-c4ccc(F)cc4)C[C@]3(C(=O)c3cc(C(F)(F)F)ccn3)C2)cn1 [relacorilant, (R)-(1-(4-fluorophenyl)-6-((1-methyl-1H-pyrazol-4-yl)sulfonyl)-4,4a,5,6,7,8-hexahydro-1H-pyrazolo[3,4-g]isoquinolin-4a-yl)(4-(trifluoromethyl)pyridine-2-yl)methanone] | – | – | – | decreased | normalized | normalized | 15 to 18 | 3.1 | exhibits areas of degeneration; also recorded: developed fat droplets | 30.99 | reduced; also recorded: decreased | shrink
